These results are taken from patent publication US20230391772A1, “METHODS AND COMPOSITIONS FOR TARGETED PROTEIN DEGRADATION” (Ranok Therapeutics (Hangzhou) Co. Ltd., priority 2020, published 2023).

One assay has as its target T1, HSP90a protein (Homo sapiens, UniProt P07900).
T1 construct: purchased BPS Bioscience 50298
Briefly: HSP90α-binding fluorescent polarization (FP) assay, BODIPY-labeled RNK04010 probe. The note with it: FP competition with RNK04010 (BODIPY-labeled), 5 nM, 300 min at 25° C. The method in brief: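 Polarization signal was read after equilibration at 25° C, for 120 min with FITC-geldanamycin or 300 min with the BODIPY-tagged RNK04010 probe, each at 5 nM final. Compounds spanned 20 μM down to 5.2 nM in 2.5-fold dilutions against the HSP90a N-terminal domain.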

For assay [1], the system named is NCI-H358 human non-small cell lung cancer. Briefly: NCI-H358 CCK-8 proliferation assay. To be noted: NCI-H358 cells, 72 hr. The class given is cell-based. The procedure, abridged:
(§1)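 KRAS(G12C) lines were used: MIA PaCa-2 with 2 copies, and NCI-H358 and NCI-H23 with 1 copy each. Cells were treated with 3-fold compound dilutions from 20 μM to 1.02 nM, and proliferation was read by CCK-8 absorbance. % inhibition was calculated against DMSO-treated cells after subtracting the cell-free medium blank.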

The test system of assay [2] is NCI-H23 human non-small cell lung cancer. The experiment in a line: NCI-H23 CCK-8 proliferation assay. The note with it: NCI-H23 cells, 72 hr. The class given is cell-based. The procedure: (§2) The following cancer cell lines were employed: BT-474 human breast carcinoma (ATCC, #HTB-20); MIA PaCa-2 human pancreatic carcinoma [2 copies KRAS(G12C)](ATCC, #CRL-1420); NCI-H23 human non-small cell lung cancer [1 copy KRAS(G12C)](ATCC, #CRL-5800); NCI-H358 human non-small cell lung cancer [1 copy KRAS(G12C)](ATCC, #CRL-5807); LU65A human lung carcinoma (Pharmaron, Beijing, China). Cell lines were cultured essentially according to ATCC and Pharmaron recommendations.
Cancer Cell Line Proliferation (CCK-8) Assays
3-fold serial dilutions of each test compound were prepared ranging from 20 μM to 1.02 nM.
% Inhibition=100−(D−B)/(S−B)*100%. • S: Absorbance of cells treated with DMSO • D: Absorbance of compound-treated cells • B: Absorbance of medium with DMSO without cells

Assay [3] has as its system MIA PaCa-2 human pancreatic carcinoma. Briefly: MIA PaCa-2 CCK-8 proliferation assay. The class given is cell-based. To be noted: Homo sapiens, MIA PaCa-2, 72 h, MIA PaCa-2 cells. The procedure, abridged: as §1
For assay [4], the target named is T2, KRAS(G12C) (Homo sapiens, UniProt P01116, G12C). Briefly: KRAS(G12C) Western blot protein degradation assay in MIA PaCa-2 cells. The class given is cell-based. Further details: host or cells: LU65A. The note with it: 48 hr; for inhibition at 0.1562 µM: 156.2 nM; for inhibition at 0.3125 µM: 312.5 nM; for inhibition at 0.625 µM: 625 nM; for inhibition at 1.25 µM: 1250 nM; for inhibition at 2.5 µM: 2500 nM; for inhibition at 5 µM: 5000 nM; for inhibition at 10 µM: 10,000 nM. The procedure: as §2
T2 sequence (P01116 1-188 isoform P01116-2 G12C): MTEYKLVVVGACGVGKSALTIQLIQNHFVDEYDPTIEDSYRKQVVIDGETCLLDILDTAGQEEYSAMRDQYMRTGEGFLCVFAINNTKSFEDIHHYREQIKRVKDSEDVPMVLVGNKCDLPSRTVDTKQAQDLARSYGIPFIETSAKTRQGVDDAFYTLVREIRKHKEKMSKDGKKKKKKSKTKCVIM
KRAS(G12C) Western Blot Protein Degradation Assay
The MIA PaCa-2 human pancreatic carcinoma cell line and LU65A human lung cancer cell line, which expresses KRAS(G12C), were seeded in 6- or 12-well tissue culture plates, and after 1 hr, test compounds were added at various concentrations and incubated at 37° C./5% CO2 for 48 hr (MIA Paca-2) and 6 hr (LU65A) respectively. Cells were then washed with cold PBS, aspirated and cold RIPA buffer containing a protease/phosphatase inhibitor cocktail was added to lyse cells. After centrifugation, the total protein concentrations of cell lysates were determined using the BCA protein assay. Samples were normalized for equivalent protein concentrations, 5×SDS-PAGE loading buffer added and denatured at 100° C. for 10 min. 20 μl of each sample/well was loaded on a SDS-PAGE gel and electrophoresed for 20 min at 80 V, then 120 V for 1.5 hr. Gels were then electroblotted to nitrocellulose membranes using a wet-transfer method at 250 mA for 2.5 hr. Membranes were incubated with blocking buffer for 1 hr and washed 3 times with TBST for 5 min. Membranes were then incubated with anti-KRAS (Sigma-Aldrich, #SAB1404011) and anti-β-Actin monoclonal antibodies (Cell Signaling Technology, #3700) diluted in blocking buffer at 4° C. overnight per the manufacturer's recommendations. After washing 3 times, blots were incubated with appropriately labeled secondary antibodies for 1 hr at room temperature and washed again. Fluorescence imaging and quantitation was performed using a LI-COR Odyssey. Results was analyzed using GraphPad Prism 7 software. Compound degradation of was determined by the following equation and DC50 values (the concentration at which 50% of the maximal degradation of KRAS occurs) calculated using GraphPad Prism 7 software:
% Inhibition=100−(D−B)/(S−B)*100%. • S: Fluorescence intensity of cells with antibody • D: Fluorescence intensity of compound-treated cells with antibody • B: Fluorescence intensity of cells without antibody

Assay [5] addresses T2, KRAS(G12C). The experiment in a line: KRAS(G12C)/SOS1 homogeneous time-resolved fluorescence (HTRF) assay. More on the design: purchased Cisbio 63ADK000CB16PEG. To be noted: absence of GTP, 4° C. for 3 hr, read-out: KRAS (G12C) binding. The procedure, abridged:
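HTRF kit measuring compound-induced block of KRAS(G12C)-SOS1 interaction without GTP. Compounds tested as 3-fold serial dilutions down to 1.02 nM, incubated with reaction components 3 h at 4 °C in sealed plates before fluorescence read.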

Assay [6] addresses T2, KRAS(G12C). Briefly: KRAS(G12C) Western blot protein degradation assay in LU65A cells. The class given is cell-based. To be noted: 6 hr. More on the design: LU65A human lung cancer cell line, which expresses KRAS(G12C); host or cells: LU65A. The method in brief:
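Cells treated with compound at various concentrations at 37 °C for 48 hr (MIA PaCa-2) or 6 hr (LU65A), then lysed in RIPA. Protein-normalized lysates immunoblotted for KRAS with β-actin, fluorescence quantified; DC50 is the concentration giving 50% of maximal KRAS degradation.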

A value given as a limit tells only on which side of the number the result lay.

`C=CC(=O)N1CCN(c2nc(NCCC(=O)N3CCC(CN4CCN(Cc5ccc(-n6c(C(=O)NCC(F)(F)F)nnc6-c6cc(C)c(O)cc6O)cc5)CC4)CC3)nc3c2CCN(c2cc(O)cc4ccccc24)C3)CC1` [Compound 10, 4-(4-((4-((1-(3-((4-(4-acryloylpiperazin-1-yl)-7-(3-hydroxynaphthalen-1-yl)-5,6,7,8-tetrahydropyrido[3,4-d]pyrimidin-2-yl)amino)propanoyl)piperidin-4-yl)methyl)piperazin-1-yl)methyl)phenyl)-5-(2,4-dihydroxy-5-methylphenyl)-N-(2,2,2-trifluoroethyl)-4H-1,2,4-triazole-3-carboxamide, trifluoroacetic acid] showed an IC50 at HSP90a protein of 100 to 1000 nM. The EC50 in assay [1] and in assay [2] was 100 to 1000 nM in each case.
In the case of `C=CC(=O)N1CCN(c2nc(OC[C@@H]3CCN(C(=O)C4CCN(Cc5ccc(-n6c(O)nnc6-c6cc(C(C)C)c(O)cc6O)cc5)CC4)C3)nc3c2CCN(c2cccc4cccc(Cl)c24)C3)C[C@@H]1CC#N` [Compound 148, 2-((S)-1-acryloyl-4-(7-(8-chloronaphthalen-1-yl)-2-(((R)-1-(1-(4-(3-(2,4-dihydroxy-5-isopropylphenyl)-5-hydroxy-4H-1,2,4-triazol-4-yl)benzyl)piperidine-4-carbonyl)pyrrolidin-3-yl)methoxy)-5,6,7,8-tetrahydropyrido[3,4-d]pyrimidin-4-yl)piperazin-2-yl)acetonitrile], the IC50 on HSP90a protein was under 100 nM. In assay [1], this compound yielded a concentration giving a half-maximal response (EC50) of 100 to 1000 nM. In addition, the EC50 in assay [3] lay within 100 to 1000 nM. In addition, at KRAS(G12C) [4], the inhibition at 0.1562 µM was under 33%, the inhibition at 0.3125 µM was under 33%, the inhibition at 0.625 µM was under 33% and the inhibition at 1.25 µM is under 33%. On KRAS(G12C) [4], this compound showed an inhibition at 2.5 µM of under 33%, an inhibition at 5 µM of under 33% and an inhibition at 10 µM of 33 to 66%. For the same compound, the IC50 on KRAS(G12C) [5] is 100 to 1000 nM.
As for `C=CC(=O)N1CCN(c2nc(OC[C@@H]3CCN(C(=O)c4cc(C(C)C)c(O)cc4OC)C3)nc3c2CCN(c2cccc4cccc(Cl)c24)C3)C[C@@H]1CC#N` [Compound 153, 2-((S)-1-acryloyl-4-(7-(8-chloronaphthalen-1-yl)-2-(((R)-1-(4-hydroxy-5-isopropyl-2-methoxybenzoyl)pyrrolidin-3-yl)methoxy)-5,6,7,8-tetrahydropyrido[3,4-d]pyrimidin-4-yl)piperazin-2-yl)acetonitrile], the IC50 on HSP90a protein is over 1000 nM. This compound registered an EC50 in assay [1] of over 1000 nM. This compound also returned a concentration giving a half-maximal response (EC50) in assay [3] of over 1000 nM. Further, at KRAS(G12C) [4], the inhibition at 0.1562 µM is under 33%, the inhibition at 0.3125 µM was under 33%, the inhibition at 0.625 µM was under 33% and the inhibition at 1.25 µM is under 33%. At KRAS(G12C) [4], this compound came in with an inhibition at 2.5 µM of under 33%, an inhibition at 5 µM of under 33% and an inhibition at 10 µM of under 33%.
At HSP90a protein, `C=CC(=O)N1CCN(c2nc(OC[C@@H]3CCN(C(=O)c4cc(C(C)C)c(O)cc4O)C3)nc3c2CCN(c2cccc4cccc(Cl)c24)C3)C[C@@H]1CC#N` [Compound 157, 2-((S)-1-acryloyl-4-(7-(8-chloronaphthalen-1-yl)-2-(((R)-1-(2,4-dihydroxy-5-isopropylbenzoyl)pyrrolidin-3-yl)methoxy)-5,6,7,8-tetrahydropyrido[3,4-d]pyrimidin-4-yl)piperazin-2-yl)acetonitrile] registered an IC50 of over 1000 nM. This compound also showed an EC50 in assay [1] of over 1000 nM. In addition, on KRAS(G12C) [4], the inhibition at 0.1562 µM is under 33%, the inhibition at 0.3125 µM was under 33%, the inhibition at 0.625 µM is under 33% and the inhibition at 1.25 µM is under 33%. Also, on KRAS(G12C) [4], the inhibition at 2.5 µM was under 33%, the inhibition at 5 µM was under 33% and the inhibition at 10 µM was under 33%. Also, the IC50 at KRAS(G12C) [5] was over 1000 nM.
For `C=CC(=O)N1CCN(c2nc(OC[C@@H]3CCN(C(=O)c4cc(CC)c(O)cc4O)C3)nc3c2CCN(c2cccc4cccc(Cl)c24)C3)C[C@@H]1CC#N` [Compound 158, 2-((S)-1-acryloyl-4-(7-(8-chloronaphthalen-1-yl)-2-(((R)-1-(5-ethyl-2,4-dihydroxybenzoyl)pyrrolidin-3-yl)methoxy)-5,6,7,8-tetrahydropyrido[3,4-d]pyrimidin-4-yl)piperazin-2-yl)acetonitrile], at HSP90a protein, the IC50 was over 1000 nM. This compound gave an EC50 in assay [1] of over 1000 nM. This compound also gave a concentration for a half-maximal effect (EC50) in assay [3] of over 1000 nM. At KRAS(G12C) [4], this compound had an inhibition at 0.1562 µM of under 33%, an inhibition at 0.3125 µM of under 33%, an inhibition at 0.625 µM of under 33% and an inhibition at 1.25 µM of under 33%. On KRAS(G12C) [4], the inhibition at 2.5 µM is under 33%, the inhibition at 5 µM was under 33% and the inhibition at 10 µM is under 33%. Besides, the IC50 on KRAS(G12C) [5] was over 1000 nM.
`C=CC(=O)N1CCN(c2nc(OC[C@@H]3CCN(C(=O)c4cc(C(C)C)c(OC)cc4O)C3)nc3c2CCN(c2cccc4cccc(Cl)c24)C3)C[C@@H]1CC#N` [Compound 159, 2-((S)-1-acryloyl-4-(7-(8-chloronaphthalen-1-yl)-2-(((R)-1-(2-hydroxy-5-isopropyl-4-methoxybenzoyl)pyrrolidin-3-yl)methoxy)-5,6,7,8-tetrahydropyrido[3,4-d]pyrimidin-4-yl)piperazin-2-yl)acetonitrile] registered an IC50 on HSP90a protein of over 1000 nM. Further, the EC50 in assay [1] was over 1000 nM. Besides, on KRAS(G12C) [4], the inhibition at 0.1562 µM is under 33%, the inhibition at 0.3125 µM was under 33%, the inhibition at 0.625 µM was under 33% and the inhibition at 1.25 µM is under 33%. At KRAS(G12C) [4], this compound showed an inhibition at 2.5 µM of under 33%, an inhibition at 5 µM of under 33% and an inhibition at 10 µM of under 33%. The IC50 at KRAS(G12C) [5] was over 1000 nM.
Turning to `C=CC(=O)N1CCN(c2nc(OC[C@@H]3CCN(CCC(=O)c4cc(C(C)C)c(O)cc4O)C3)nc3c2CCN(c2cccc4cccc(Cl)c24)C3)C[C@@H]1CC#N` [Compound 186, 2-((S)-1-acryloyl-4-(7-(8-chloronaphthalen-1-yl)-2-(((R)-1-(3-(2,4-dihydroxy-5-isopropylphenyl)-3-oxopropyl)pyrrolidin-3-yl)methoxy)-5,6,7,8-tetrahydropyrido[3,4-d]pyrimidin-4-yl)piperazin-2-yl)acetonitrile, trifluoroacetic acid], the IC50 was over 1000 nM at HSP90a protein and 100 to 1000 nM on KRAS(G12C) [5]. The inhibition at 10 µM against KRAS(G12C) [4] is 33 to 66%. The compound also had a half-maximal degradation concentration (DC50) on KRAS(G12C) [6] of over 1000 nM.
